No end group written: not given here.
What was measured:
[1] = test system: mouse melanoma cell lines (1057, 1064, 1181, 1014); test: Cell growth (cell counting), mouse melanoma cell lines; type: cell-based; settings: 48 h
Method: (§1) Six-well tissue-culture plates were seeded with 3 × 10^5 melanoma cells in complete medium. After 24 h, the medium was replaced by low-serum medium (0.5% for murine melanoma cell lines and 1% for human melanoma cells) and the cells were incubated for a further 18 h before stimulation with 10 nM GRP (4011670 bachem) and/or 1 µM RC (R9653, Sigma-Aldrich) for 48 h. The plates were trypsinized just after stimulation or 48 h later and the cells were counted. For the MTT assay, 10,000 cells were seeded per well in 96-well plates. After 24 h, cells were starved overnight and then treated with 10 nM GRP and/or 1 µM RC for 48 h in low-serum medium (0.5% FBS). Next, MTT (M5655, Sigma-Aldrich) was added to the wells to a final concentration of 0.5 mg ml^−1 and the plates were incubated for 3 h. The medium was removed and formazan crystals dissolved in 200 µl DMSO. The absorbance was read at 570 nm using a LUMIstar Omega […] (BMG Labtech). All growth experiments were done using three technical replicates and three biological replicates. For the clonogenic assay, six-well tissue-culture plates were seeded with 500 cells in complete medium. After 10 days (20 days for 1181), colonies were fixed with 4% PFA for 15 min and stained with 10% crystal violet in ethanol for 20 min and counted in images using ImageJ software. Experiments were done in triplicate.

[2] = test system: human melanoma cell lines (MDA-MB-435S, 501mel); test: Cell growth (cell counting), human melanoma cell lines; type: cell-based; settings: 48 h
Method: as §1

[3] = test system: human melanoma cells (MDA-MB-435S); test: Anoikis assay, human melanoma cells; type: cell-based; settings: 10 nM GRP and/or 1 µM RC, 48 h, poly-HEMA, low serum, annexin V/7-AAD
Method: Six-well plates were coated with poly-HEMA to prevent cell attachment to the well surface. Cells were seeded in low-serum medium containing 10 nM GRP and/or 1 µM RC. Then, 48 hours after cell seeding, cells were collected and washed with ice-cold PBS twice and resuspended in annexin V binding buffer (556454, BD Biosciences) and incubated at room temperature in the dark with 7-amino-actinomycin D (7-AAD, 559925, BD Biosciences) and annexin-V for 15 min. Annexin V was coupled to FITC (556420, BD Biosciences) for the 1057 and MDA-MB-435S cell lines and to PE (556421, BD Biosciences) for the other cell lines. Cells were sorted using a FACS LSRFortessa (BD Biosciences) to determine the percentage of annexin V- and/or 7-AAD-positive cells using a 488 nm laser for annexin V-FITC and annexin V-PE and a 675 nm laser for7-AAD. All quantification was performed using Flow-Jo.

[4] = test system: mouse melanoma cell lines (1057, 1064, 1181, 1039, 1456, 1014); test: Matrigel invasion assay, mouse melanoma cells; type: cell-based; settings: 24 h
Method: (§2) Matrigel invasion assays were done in transwell plates with 8.0-µm pores (353097, Falcon) coated with 100 µl of 200 µg ml^−1 Matrigel. Depending on the experiments, cells were seeded directly or 24 h after transfection in low-serum medium (0.5% FCS for murine cells and 1% for human cell lines) with 10 nM GRP, 1 µM RC-3095, and/or 1 µM IC 182,780, or in 10% FCS. Then, 24 hours after stimulation, inserts were washed with PBS and non-invading cells were removed. Cells in the inserts were fixed in methanol at −20 °C overnight. The inserts were rinsed and the membrane carefully removed using a sharp scalpel. The membrane was mounted in prolong glass DAPI (1.5 µg ml^−1). Assays were performed in triplicate and automatic counting of invading cells was done using an Image/Fiji macro (10.5281/zenodo.14509394). Sequences of siRNAs are given in Supplementary Table 11.

[5] = test system: human melanoma cell lines (MDA-MB-435S, Dauv-1, 501mel-GRPR); test: Matrigel invasion assay, human melanoma cells; type: cell-based; settings: 10 nM GRP and/or 1 µM RC-3095, 24 h, 1% FCS
Method: as §2

GRPR, Gαq/11 activation = test: IP1 detection (HTRF IP-one Gq kit); type: cell-based, mouse; settings: 10 nM GRP, 30 min, 37 °C
Method: IP1 levels were quantified using the HTRF IP-one Gq detection kit (62IPAPEB, Revvity) following the manufacturer’s protocol. We treated 4,000 cells for 30 min at 37 °C in StimB buffer with 10 nM GRP, 1 µM RC-3095, 1 µM ICI-182,780 or DMSO. FRET signals (620 nm and 665 nm, excitation at 385 nm) were measured using a Clariostar plate reader (BMG Labtech).

[6] = test system: Yap1 in Grpr+ mouse melanoma cells (1057); test: YAP1 nuclear localization (immunofluorescence); type: cell-based; settings: 1057 cells, 1 h, 10 nM GRP and/or 1 µM RC
Method: Cells were seeded on coverslips and cultivated until 100% confluence was achieved. After 24 h of starvation in 0.5% FCS for murine melanoma cell lines and 1% FCS for human melanoma, the medium was complemented with 10 nM GRP and/or 1 µM RC for 1 h. Cells were fixed with 4% PFA for 15 min and blocked with 5% normal goat serum and 0.3% Triton X-100 in PBS. Cells were incubated overnight at 4 °C with anti-YAP D8H1X antibody (14074, cell Signaling, 1/100 dilution) in 1% BSA and 0.3% Triton X-100 followed by incubation for 1.5 h at room temperature with goat anti-rabbit Alexa fluor 594 (A-11012, Invitrogen, 1/500 dilution). Coverslips were mounted with Prolong Gold containing 1.5 µg ml^−1 DAPI (P36934, Invitrogen). Images were acquired using an inverted SP8 Leica confocal microscope (Leica Microsystem). YAP1 localization was evaluated using ImageJ Software.

[7] = test system: ECAD in 501mel cells with and without GRPR; test: Western blot of ECAD with and without GRP; type: cell-based, human; settings: 501mel cells expressing GRPR, 10 nM GRP
Method: Whole-cell lysates were prepared and analysed as described previously. The primary antibodies used were: E-cadherin (610182, BD Transduction Laboratories, dilution 1/1,000); ERα (MA1-27107, Invitrogen, dilution 1/500); YAP (14074, Cell Signaling, dilution 1/1,000); β-actin (A5441, Sigma, dilution 1/5,000); and vinculin (4650, Cell Signaling, dilution 1/5,000). All raw data are provided in Supplementary Fig. 1.

GRP: GRPR's natural agonist, endogenous ligand of GRPR (4011670 bachem) (VPLPAGGGTVLTKMYPRGNHWAVGHLM; not fully specified; ends and bridges not checked; UniProt P07492 24-50, looked up)
cell growth, GRPR-positive mouse lines ([1]; 1057 and 1064, 10 nM GRP and/or 1 µM RC, low serum 0.5%): promoted growth
cell growth, GRPR-negative mouse cells ([1]; 1181 and 1014, 10 nM GRP, low serum): had no effect
cell growth, GRPR-negative human cells ([2]; 501mel, 10 nM GRP, low serum): had no effect
cell growth, GRPR-positive human line ([2]; MDA-MB-435S, 10 nM GRP and/or 1 µM RC, low serum 1%): promoted growth
anoikis resistance (apoptotic cells without matrix attachment), GRPR+ human cells [3]: promoted
invasion (number of invading cells), GRPR-positive mouse lines ([4]; 1057 (also 1064, GRPR-transduced 1014 and 1181 for RC-3095), 10 nM GRP, 1 µM RC-3095 and/or 1 µM ICI, Matrigel 200 µg ml−1, 0.5% FCS): promoted invasion
invasion (number of invading cells), Grpr-negative mouse lines ([4]; 1181 male Ecad, 1039 female Ecad, 1456 male ΔEcad, 10 nM GRP and/or 1 µM ICI): but not in Ecad-positive (1181 male and 1039 female) or Ecad-negative male (1456) cells
invasion (number of invading cells), GRPR-positive human lines [5]: promoted
IP1 production, GRPR-negative cells (GRPR, Gαq/11 activation): not GRPR-negative cells
IP1 production, GRPR-positive cells (GRPR, Gαq/11 activation; 4,000 cells, StimB buffer, 1 µM RC-3095, 1 µM ICI-182,780 (pre-treatment)): triggered IP1 production
YAP1 nuclear localization [6]: increased
ECAD protein level [7]: lower

— publication PMC12267067, “Targeting GRPR for sex hormone-dependent cancer after loss of E-cadherin” (Nature, 2025)
